Assay results published in ChEMBL document CHEMBL4680133, “Novel nitroimidazole derivatives evaluated for their trypanocidal, cytotoxic, and genotoxic activities” (Eur J Med Chem, 2020).

Key:
[1] = Mutagenicity in Salmonella typhimurium TA100 assessed as revertant/ug measured after 20 mins in absence of S9 fraction by microsome assay; format: toxicity; settings: salmonella enterica subsp. enterica serovar typhimurium, microsomes
[2] = Mutagenicity in Salmonella typhimurium TA97 assessed as revertant/ug measured after 20 mins in presence of S9 fraction by microsome assay; format: toxicity, subcellular; settings: salmonella enterica subsp. enterica serovar typhimurium, s9, 20 min
[3] = Mutagenicity in Salmonella typhimurium TA100 assessed as revertant/ug measured after 20 mins in presence of S9 fraction by microsome assay; format: toxicity, subcellular; settings: salmonella enterica subsp. enterica serovar typhimurium, s9, 20 min
[4] = Mutagenicity in Salmonella typhimurium TA97 assessed as revertant/ug measured after 20 mins in absence of S9 fraction by microsome assay; format: toxicity; settings: salmonella enterica subsp. enterica serovar typhimurium, microsomes
Trypanosoma cruzi = test: Antitrypanosomal activity against bloodstream form of Trypanosoma cruzi Y trypomastigotes infected in African green monkey Vero cells assessed as increase in parasite lysis measured after 24 hrs by Neubauer chamber method; format: functional, organism-based

With Cn1cnc([N+](=O)[O-])c1-n1cccn1 the Activity [1] was 65.5 revertants/µg, the Activity [2] was “Non-Toxic” and the Activity [3] was 35.5 revertants/µg. The Activity [4] was 11.5 revertants/µg.

In the case of Cn1cnc([N+](=O)[O-])c1-n1cc(-c2ccccc2)nn1, the IC50 (Trypanosoma cruzi) is reported as 25.2 µM.

Molecule CCCCCc1cn(-c2c([N+](=O)[O-])ncn2C)nn1 has an IC50 (Trypanosoma cruzi) of 54.3 µM.

Work on Cn1cnc([N+](=O)[O-])c1-n1ccnc1 yielded an IC50 (Trypanosoma cruzi) greater than 2000 µM.

With Cn1cnc([N+](=O)[O-])c1-n1cc(C2=CCCCC2)nn1 the IC50 (Trypanosoma cruzi) was 41.7 µM.
